Laboratory results published in ChEMBL document CHEMBL1201862, “PubChem BioAssay data set” (2004).
The source made the active and inactive calls. Rule as the data show it, for most assays here: actives have a measured EC50 and inactives only a lower limit.

What was measured:
[1] = biological target: T1, Corticotropin-releasing factor receptor 2/Corticotropin-releasing factor-binding protein (Homo sapiens, UniProt P24387+Q13324); test: activators of CRF receptor 2 with binding protein – uHTS hits, confirmation (AID 602473); type: functional; conditions: read-out: EC50_Mean
T1 sequence (Q13324 whole entry): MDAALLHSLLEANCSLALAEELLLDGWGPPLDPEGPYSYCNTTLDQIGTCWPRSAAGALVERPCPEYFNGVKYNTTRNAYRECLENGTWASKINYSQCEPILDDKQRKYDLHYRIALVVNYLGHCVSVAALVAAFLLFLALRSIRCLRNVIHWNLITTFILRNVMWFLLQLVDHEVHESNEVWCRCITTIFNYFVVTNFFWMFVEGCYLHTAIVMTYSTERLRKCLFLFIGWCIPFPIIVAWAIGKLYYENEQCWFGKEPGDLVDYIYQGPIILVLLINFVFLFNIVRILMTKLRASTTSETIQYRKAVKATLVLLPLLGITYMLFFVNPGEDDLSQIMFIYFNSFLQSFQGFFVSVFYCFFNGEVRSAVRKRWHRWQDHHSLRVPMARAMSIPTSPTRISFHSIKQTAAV
T1 sequence (P24387 whole entry): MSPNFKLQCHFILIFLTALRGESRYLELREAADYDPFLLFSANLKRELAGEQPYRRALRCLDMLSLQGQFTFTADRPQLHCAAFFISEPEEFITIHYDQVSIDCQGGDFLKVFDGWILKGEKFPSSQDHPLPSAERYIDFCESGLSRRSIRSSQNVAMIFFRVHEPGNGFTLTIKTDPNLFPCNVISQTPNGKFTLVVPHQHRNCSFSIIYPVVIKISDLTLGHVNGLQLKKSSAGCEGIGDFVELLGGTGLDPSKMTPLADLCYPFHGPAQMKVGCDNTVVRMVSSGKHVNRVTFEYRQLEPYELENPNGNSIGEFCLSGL

[2] = biological target: T1, Corticotropin-releasing factor receptor 2/Corticotropin-releasing factor-binding protein; test: Dose Response confirmation of uHTS hits for small molecule antagonists of the CRF-binding protein and CRF-R2 receptor complex.; type: functional; conditions: read-out: IC50_Mean
H9c2 = test: cells; type: functional, cell-based; conditions: Rattus norvegicus, H9c2, Myocardium;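 also: confirmatory concentration-response retest of ultra-high-throughput screening hits for modulation of myocardial damage; cell death induced by hydrogen peroxide oxidative stress; compound pretreatment for 60 min then peroxide exposure for 2 h; potency is for protecting the cells against peroxide damage rather than for killing them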
[3] = HEp-2 cell cytotoxicity, dose response, cytotoxicity control for RSV inhibitor project, HTS (AID 2410); type: functional; conditions: human respiratory syncytial virus
Fatty acid synthase [4] = biological target: T2, Fatty acid synthase (Homo sapiens, UniProt P49327); test: FAS thioesterase domain inhibitors, dose response, biochemical, endpoint fluorescence intensity, uHTS hits (AID 624327); type: functional;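 also: fluorescence from hydrolysis of an O-methyl fluorescein acyl ester substrate by the enzyme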
Protein RecA = biological target: T3, Protein RecA (Mycobacterium tuberculosis, UniProt P9WHJ3); test: Fluorescence Cell-Free Homogeneous Dose Retest to Identify Inhibitors of RecA-Intein Splicing Activity. [Related pubchem assays (depositor defined):AID2097, AID2223, AID489010, AID492950]; type: functional
T3 sequence (P9WHJ3 whole entry): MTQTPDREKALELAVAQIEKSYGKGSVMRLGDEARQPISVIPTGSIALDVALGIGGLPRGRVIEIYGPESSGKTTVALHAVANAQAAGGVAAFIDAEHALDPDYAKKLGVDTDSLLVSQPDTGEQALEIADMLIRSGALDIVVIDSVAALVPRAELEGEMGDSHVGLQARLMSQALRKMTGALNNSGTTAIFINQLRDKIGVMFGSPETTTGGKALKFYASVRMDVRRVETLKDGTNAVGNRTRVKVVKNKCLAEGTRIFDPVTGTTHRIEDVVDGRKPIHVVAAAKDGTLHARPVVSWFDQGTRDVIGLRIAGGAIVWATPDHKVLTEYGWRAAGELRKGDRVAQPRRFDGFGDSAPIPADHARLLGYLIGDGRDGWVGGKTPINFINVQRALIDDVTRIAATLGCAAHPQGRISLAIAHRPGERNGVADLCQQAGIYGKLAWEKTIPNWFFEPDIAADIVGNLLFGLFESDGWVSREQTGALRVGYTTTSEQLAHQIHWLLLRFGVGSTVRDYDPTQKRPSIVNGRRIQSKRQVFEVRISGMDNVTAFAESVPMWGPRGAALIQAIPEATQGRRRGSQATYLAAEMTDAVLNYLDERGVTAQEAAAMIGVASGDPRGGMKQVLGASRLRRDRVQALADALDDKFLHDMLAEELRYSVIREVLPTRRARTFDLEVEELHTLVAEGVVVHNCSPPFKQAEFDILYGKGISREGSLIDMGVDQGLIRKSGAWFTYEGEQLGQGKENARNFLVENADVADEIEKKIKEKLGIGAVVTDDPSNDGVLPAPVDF

Fatty acid synthase [5] = biological target: T2, Fatty acid synthase; test: FAS thioesterase domain inhibitors, dose response, biochemical, kinetic fluorescence intensity (AID 624326); type: functional;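 also: rate of fluorescence rise from hydrolysis of a fluorogenic O-methyl fluorescein ester substrate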
INS1 = test: beta cell apoptosis inhibitors, cytokine rescue, dose response, luminescence, retest (AID 449756); type: functional, cell-based; conditions: Rattus norvegicus;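 also: cell death triggered by IL-1 beta plus TNF-alpha plus IFN-gamma mixture; protective hits raise ATP signal compared with cytokine alone wells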
H4 = test: Luminescence Cell-Based Dose Response HTS to Identify Activators of 5'UTR Stem-Loop Driven Prion Protein mRNA Translation in H4 Neuroglioblastoma Cells. [Related pubchem assays: 1829 (Project Summary), 1814 (Primary HTS)]; type: functional; conditions: Homo sapiens
[6] = Luminescence Cell-Based Dose Response HTS to Identify Activators of Luciferase Translation or Activity in H4 […] Cells. [Related pubchem assays: 1829 (Project Summary), 1814 (Primary HTS)]; type: functional
[7] = Luminescence Cell-Based Dose Confirmation HTS to Identify Activators of 5'UTR Stem-Loop Driven Alpha-Synuclein mRNA Translation in H4 Neuroglioblastoma Cells. [Related pubchem assays: 1829 (Project Summary), 1814 (Primary HTS)]; type: functional
[8] = test system: Streptococcus sp. 'group A'; test: growth inhibition of control SK(-) GAS strain, dose response, counter-screen for streptokinase expression inhibitor project, luminescence, kanamycin, BacTiterGlo, confirmation (AID 1900); type: functional, organism-based
Streptokinase A = biological target: T4, Streptokinase A (Streptococcus pyogenes serotype M1, UniProt P10520); test: S. pyogenes streptokinase expression inhibitors, potency, dose response, plasminogen activation absorbance, OD405 (AID 1914); type: functional, Streptococcus pyogenes M1 GAS;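 also: secreted streptokinase activity via plasminogen activation per viability signal from cell pellet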
T4 sequence (P10520 whole entry): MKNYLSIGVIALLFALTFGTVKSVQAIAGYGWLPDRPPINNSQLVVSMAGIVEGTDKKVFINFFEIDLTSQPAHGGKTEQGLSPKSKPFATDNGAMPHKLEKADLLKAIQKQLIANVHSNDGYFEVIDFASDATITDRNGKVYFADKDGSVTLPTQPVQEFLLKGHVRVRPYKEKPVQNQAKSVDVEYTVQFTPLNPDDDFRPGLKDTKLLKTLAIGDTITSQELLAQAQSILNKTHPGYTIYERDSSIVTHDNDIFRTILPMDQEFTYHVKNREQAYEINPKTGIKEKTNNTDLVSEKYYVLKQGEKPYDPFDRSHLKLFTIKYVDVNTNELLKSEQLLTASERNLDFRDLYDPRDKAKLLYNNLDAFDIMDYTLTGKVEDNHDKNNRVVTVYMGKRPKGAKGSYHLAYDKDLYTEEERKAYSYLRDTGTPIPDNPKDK

Streptococcus = test: Group A Streptococcus viability loss, dose response, counter-screen for streptokinase expression inhibitor project, luminescence, BacTiterGlo (AID 1915); type: functional, organism-based;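 also: potency for reduction of bacterial viability or growth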

T2 sequence (P49327 whole entry, the tested form may be a part): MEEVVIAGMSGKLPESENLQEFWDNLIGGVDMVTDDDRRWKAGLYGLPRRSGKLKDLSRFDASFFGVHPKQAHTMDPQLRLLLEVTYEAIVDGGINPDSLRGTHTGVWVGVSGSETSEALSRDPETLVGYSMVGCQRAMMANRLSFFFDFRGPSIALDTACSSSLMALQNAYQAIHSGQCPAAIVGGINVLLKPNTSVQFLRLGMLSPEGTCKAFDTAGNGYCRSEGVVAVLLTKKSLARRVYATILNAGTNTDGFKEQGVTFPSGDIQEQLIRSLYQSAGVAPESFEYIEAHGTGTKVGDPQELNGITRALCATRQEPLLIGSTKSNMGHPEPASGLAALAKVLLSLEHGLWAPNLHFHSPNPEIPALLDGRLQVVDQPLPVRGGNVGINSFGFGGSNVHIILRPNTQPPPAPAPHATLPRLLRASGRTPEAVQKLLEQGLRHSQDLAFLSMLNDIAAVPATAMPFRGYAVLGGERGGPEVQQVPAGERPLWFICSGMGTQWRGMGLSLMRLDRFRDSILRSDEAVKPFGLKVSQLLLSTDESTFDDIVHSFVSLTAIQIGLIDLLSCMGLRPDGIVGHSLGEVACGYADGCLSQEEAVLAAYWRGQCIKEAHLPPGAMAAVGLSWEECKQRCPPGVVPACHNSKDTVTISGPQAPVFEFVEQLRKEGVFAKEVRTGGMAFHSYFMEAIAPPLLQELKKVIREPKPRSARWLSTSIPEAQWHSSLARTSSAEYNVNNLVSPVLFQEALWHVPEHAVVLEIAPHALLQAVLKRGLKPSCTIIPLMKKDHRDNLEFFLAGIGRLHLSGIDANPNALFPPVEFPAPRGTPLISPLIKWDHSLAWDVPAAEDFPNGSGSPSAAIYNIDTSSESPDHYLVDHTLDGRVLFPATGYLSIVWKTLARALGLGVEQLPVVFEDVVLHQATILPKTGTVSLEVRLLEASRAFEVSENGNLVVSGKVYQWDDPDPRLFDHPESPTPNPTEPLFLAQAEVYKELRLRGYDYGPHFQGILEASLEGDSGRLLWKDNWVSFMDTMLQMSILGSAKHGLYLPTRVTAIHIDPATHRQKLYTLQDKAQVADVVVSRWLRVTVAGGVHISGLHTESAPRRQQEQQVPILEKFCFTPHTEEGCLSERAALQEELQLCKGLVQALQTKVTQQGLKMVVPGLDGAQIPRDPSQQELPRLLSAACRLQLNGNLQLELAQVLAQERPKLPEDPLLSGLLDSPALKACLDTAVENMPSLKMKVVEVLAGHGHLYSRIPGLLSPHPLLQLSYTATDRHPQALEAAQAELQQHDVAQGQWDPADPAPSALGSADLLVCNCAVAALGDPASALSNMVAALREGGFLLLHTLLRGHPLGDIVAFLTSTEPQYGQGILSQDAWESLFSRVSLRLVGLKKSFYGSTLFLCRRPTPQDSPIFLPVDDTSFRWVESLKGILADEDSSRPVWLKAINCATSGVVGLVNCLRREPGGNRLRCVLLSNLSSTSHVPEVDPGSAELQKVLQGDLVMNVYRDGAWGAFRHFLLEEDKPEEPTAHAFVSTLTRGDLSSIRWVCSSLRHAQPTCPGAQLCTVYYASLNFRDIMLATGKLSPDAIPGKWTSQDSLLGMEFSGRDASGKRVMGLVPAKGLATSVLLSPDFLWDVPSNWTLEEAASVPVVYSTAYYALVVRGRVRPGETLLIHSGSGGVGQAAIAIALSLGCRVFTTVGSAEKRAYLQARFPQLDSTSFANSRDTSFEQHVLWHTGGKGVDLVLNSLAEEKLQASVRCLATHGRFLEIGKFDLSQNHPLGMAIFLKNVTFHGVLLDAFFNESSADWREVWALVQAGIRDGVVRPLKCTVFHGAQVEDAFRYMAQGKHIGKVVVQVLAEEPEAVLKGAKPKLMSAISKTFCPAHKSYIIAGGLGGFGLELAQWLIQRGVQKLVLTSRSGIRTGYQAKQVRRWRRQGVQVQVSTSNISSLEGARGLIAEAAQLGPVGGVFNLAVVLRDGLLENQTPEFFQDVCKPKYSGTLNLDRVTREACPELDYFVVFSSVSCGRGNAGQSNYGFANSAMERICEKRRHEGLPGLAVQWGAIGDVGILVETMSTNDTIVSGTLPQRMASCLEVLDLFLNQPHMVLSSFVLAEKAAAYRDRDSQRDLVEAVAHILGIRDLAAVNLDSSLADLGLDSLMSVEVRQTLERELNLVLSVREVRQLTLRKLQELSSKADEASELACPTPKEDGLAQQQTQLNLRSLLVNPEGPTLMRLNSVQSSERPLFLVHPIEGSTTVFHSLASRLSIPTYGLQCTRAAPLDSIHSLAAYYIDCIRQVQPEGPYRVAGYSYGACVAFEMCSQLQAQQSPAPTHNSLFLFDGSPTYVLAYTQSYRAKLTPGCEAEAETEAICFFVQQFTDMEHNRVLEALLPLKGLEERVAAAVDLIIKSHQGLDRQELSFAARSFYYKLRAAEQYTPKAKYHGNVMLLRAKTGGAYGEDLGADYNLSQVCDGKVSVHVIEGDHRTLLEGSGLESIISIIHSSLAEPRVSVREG

With `CCOc1ccc(NC(=O)CCNS(=O)(=O)c2cccc3nonc23)cc1` the EC50 [1] was > 53 µM (inactive) and the IC50 [2] was > 47.1 µM (inactive).

With `COc1ccccc1NC(=O)CSc1ccc2nnc(-c3ccc(C)cc3)n2n1` the IC50 (H9c2) was > 79 µM (inactive).

In the case of `CC1CN(c2ccc([N+](=O)[O-])cc2C#N)CC(C)O1` (stereo not given), the CC50 [3] is reported as 34.9 µM (active).

In the case of `O=C(COC(=O)c1cc(-c2cccnc2)nc2ccccc12)Nc1ccc(F)cc1F`, the IC50 (H9c2) is reported as 13.8 µM (active).

For `Cc1ccccc1/N=C1\C(Cl)=C(O)OC1OC(=O)c1ccco1` (stereo not given), the IC50 (Fatty acid synthase [4]) was 3.24 µM (active), the EC50 (Protein RecA) was 11.4 µM (active) and the IC50 (Fatty acid synthase [5]) was 4.35 µM (active).

With `COc1cc(OC)cc(C(=O)NC2CC3CCC(C2)N3Cc2ccco2)c1` (stereo not given) the EC50 [1] was > 53 µM (inactive) and the IC50 [2] was > 47.1 µM (inactive).

With `COc1ccc(/C=C/C(=O)c2ccccc2O)cc1CN1CCOCC1` the IC50 (H9c2) was > 79 µM (inactive).

In the case of `C[C@@H](C(=O)Nc1ccc2ccccc2c1)[C@H]1C[C@]1(C)[C@H](NS(=O)(=O)c1ccccc1)c1ccccc1`, the CC50 [3] is reported as 36.4 µM (active).

For `Cc1[nH]c2ccccc2c1N=Nc1ccc(F)cc1`, the CC50 [3] was 17.2 µM (active).

With `C=CCN1C(=O)NC(=O)/C(=C(/CC)NCc2ccc3c(c2)OCO3)C1=O` the EC50 [1] was > 53 µM (inactive) and the IC50 [2] was > 47.1 µM (inactive).

For `COc1ccc(-c2nn(-c3ccccc3)cc2C(=O)OCC(=O)c2ccc(C)c([N+](=O)[O-])c2)cc1`, the AC50 (INS1) was 0.97 µM (active).

In the case of `O=C(CCc1nc(O)c2ccccc2n1)Nc1nc(-c2cccs2)cs1`, the EC50 (H4) is reported as 104 µM (inconclusive), the EC50 [6] is reported as 15.8 µM (active) and the IC50 (H9c2) is reported as 17.3 µM (active). For the same compound, the EC50 [7] was 12.5 µM (active).

With `CCOC(=O)N1CCC(n2c(SCC(=O)N3CCC(C)CC3)nc3ccccc3c2=O)CC1` the IC50 (H9c2) was > 79 µM (inactive).

For `COc1ccc(-c2[nH]c(-c3ccc(C)cc3)nc2SCC(=O)NC2CCCC2)cc1`, the CC50 [3] was 38.9 µM (active).

With `CC(C)(C)C(=O)N1N=C(c2ccc(NS(C)(=O)=O)cc2)CC1c1cccs1` (stereo not given) the EC50 [8] was 6.62 µM (active), the EC50 (Streptokinase A) was > 150 µM (not active) and the EC50 (Streptococcus) was 12.4 µM (active).

For `O=C(NC(=S)N1CCN(C(c2ccccc2)c2ccccc2)CC1)c1ccc(S(=O)(=O)N2CCOCC2)cc1`, the EC50 [8] was 1.14 µM (active), the EC50 (Streptokinase A) was > 150 µM (not active) and the EC50 (Streptococcus) was 108 µM (active).

With `O=C(CSc1ccc(-c2ccc(Cl)cc2)nn1)NC1CCCC1` the EC50 [8] was > 150 µM (not active), the EC50 (Streptokinase A) was > 150 µM (not active) and the EC50 (Streptococcus) was > 150 µM (not active).

For `COc1ccc(/C=N/NC(=O)c2cc(C(C)(C)C)[nH]n2)cc1COc1ccc(F)cc1F`, the EC50 [8] was 6.95 µM (active), the EC50 (Streptokinase A) was > 150 µM (not active) and the EC50 (Streptococcus) was 11.7 µM (active).

With `COc1cc(CCNc2ccc3nnc(-c4ccccc4)n3n2)cc(OC)c1OC` the IC50 (H9c2) was > 79 µM (inactive).
